Source: PMC9119314 (Frontiers in Pharmacology, 2022)

Assays:
P. falciparum K1 = experiment: In vitro antiplasmodial activity, P. falciparum K1 (lactate dehydrogenase assay); assay type: cell-based, Plasmodium falciparum; conditions: Plasmodium falciparum; chloroquine-resistant strain K1, 48 h, mean ± SE; read-out: Activity against P. falciparum K1, IC50
Method: P. falciparum (K1 clone) was maintained in human erythrocytes prepared from the donated blood samples (blood groups unknown, Ethical Tissue, University of Bradford), suspended in the RPMI 1640 medium as previously described ([Wright et al., 2001]), except that serum was replaced with Albumax II, [5% (^w/v)]. […] Twofold serial dilutions were made in 96-well microtiter plates in duplicate, and infected erythrocytes were added to give a final volume of 100 µL with 2.5% hematocrit and 1% parasitemia. Chloroquine diphosphate was used as a positive control, and uninfected and infected erythrocytes without compounds were included in each test. The plates were placed into a modular incubator; gassed with 93% nitrogen, 3% oxygen, and 4% carbon dioxide; and incubated at 37°C for 48 h. The parasite growth was assessed by measuring lactate dehydrogenase activity as described by [Makler et al. (1993)]. The reagent used contained the following in each mL: acetylpyridine adenine dinucleotide (APAD), 0.74 mg; lithium lactate, 19.2 mg; diaphorase, 0.1 mg; Triton X-100, 2 μL; nitroblue tetrazolium, 1 mg; and phenazine ethosulphate, 0.5 mg. Fifty microliter of this reagent was added to each well and mixed; plates were incubated for 15 min at 37°C. The optical densities were read at 550 nm using an Azure 96-well microplate reader (Azure Biosystems Inc.), and % inhibition of growth was calculated by comparison with the control values. IC50 values were determined using linear regression analysis (Microsoft Excel). A minimum of three separate determinations was carried out for each compound.

P. falciparum 3D7 = experiment: In vitro antiplasmodial activity, P. falciparum 3D7 (SYBR Green I); assay type: cell-based; conditions: Plasmodium falciparum; chloroquine-sensitive strain 3D7, 48 h; read-out: Activity against P. falciparum 3D7, IC50
Method: (§1) P. falciparum (3D7 clone) and P. knowlesi (A1-H.1 clone) were maintained in culture in RPMI 1640 supplemented with 25 mM HEPES, 25 mM NaHCO3, 10 mM D-glucose, 2 mM L-glutamine, 50 mg/L hypoxanthine, 25 mg/L gentamicin sulfate, 5 g/L Albumax II, and 10% (v/v) equine serum (Thermo Fisher Scientific, 26-050-088). The P. falciparum (3D7) and P. knowlesi (A1-H.1) parasites were grown in human A^+ red blood cells (National Health Blood and Transplant, United Kingdom). The parasites were incubated in sealed flasks at 37°C under a culture gas mixture of 96% N2, 3% CO2, and 1% O2. ([van Schalkwyk et al., 2019]). The compounds were initially dissolved in DMSO prior to diluting in RPMI. All experiments were initiated using unsynchronized parasites with both the parasitemia and hematocrit set to 1%. Drug susceptibility assays were set up in 96-well, flat-bottom microplates in a final volume of 200 μL, as described previously ([van Schalkwyk et al., 2017]). The controls were included for the background fluorescence (0% viability; parasites exposed to a supralethal 10 μM chloroquine concentration) and 100% growth (parasites in drug-free wells). The plates were incubated for one complete life cycle (27 h for P. knowlesi or 48 h for P. falciparum in vitro) at 37°C in a modular incubation chamber (Billups-Rothenburg Inc.) under the culture gas. Upon termination of the assay, the plates were stored at −20°C overnight. The SYBR Green I fluorescent method was used to measure parasite survival ([Bennett et al., 2004]; [Smilkstein et al., 2004]). After the microplates were thawed, 100 μL from each well was transferred into a duplicate plate. To this was added 100 μL of SYBR green solution [SYBR Green I (Thermo Fisher Scientific, S7563), diluted 1:5000 in a lysis buffer made of 20 mM Tris, 5 mM EDTA, 0.008% (w/v) saponin, 0.08% (v/v) Triton X-100, pH 7.5]. The plates were stored in the dark for 1 h before fluorescence was read at a 490 nm excitation wavelength and a 520 nm emission wavelength on a Spectramax M3 microplate reader (Molecular Devices) ([van Schalkwyk et al., 2017]). The background fluorescence (wells with parasites at 0% viability) was subtracted from all drug assay wells, and the parasite proliferation was determined as a percentage of the fluorescence in the drug-free control wells.

P. knowlesi A1-H.1 = experiment: In vitro antiplasmodial activity, P. knowlesi A1-H.1 (SYBR Green I); assay type: cell-based, Plasmodium knowlesi; conditions: Plasmodium knowlesi, 27 h, read-out: Activity against P. knowlesi A1-H.1, IC50, 27 h, ± SD
Method: as §1

[1] = tested on: P. falciparum (NF54-Mal8p1.16-GFP-Luc) late-stage gametocytes; experiment: microbe, parasite or virus in culture; assay type: cell-based, Plasmodium falciparum; conditions: Plasmodium falciparum, NF54, 48 h, read-out: Activity against late-stage gametocytes IC50
Method: Gametocytes were produced as per [Reader et al. (2015]; [2021)] from P. falciparum NF54-Mal8p1.16-GFP-Luc ([Adjalley et al., 2011]), and each batch was validated for viability and functionality before use. […] Drug assays were set up on day 10 (representing late gametocytes, >90% stage IV/V gametocytes) using a 2–3% gametocytemia, 1.5% hematocrit culture. The drug pressure was for 48 h under stationary, hypoxic conditions (90% N2, 5% O2, and 5% CO2) at 37°C. Luciferase activity was determined in 30 μL parasite lysates by adding 30 μL luciferin substrate (Promega Luciferase Assay System) at room temperature and detection of resultant bioluminescence at an integration constant of 10 s with the GloMax®-Multi + Detection System with Instinct® Software. Methylene blue (5 μM) and an internal control (MMV390048, 5 μM) were routinely included as controls.

A2780/WT cells = experiment: Chemosensitivity MTT assay, A2780 wild type; assay type: cell-based, human; conditions: Homo sapiens, A2780, 96 h, ± SE, read-out: Activity against A2780/WT cells, IC50
Method: (§2) The chemosensitivity of compounds 3–6 was assessed in the wild-type immortalized human ovarian adenocarcinoma cell line A2780 and its daughter cell lines, which are resistant to the standard cancer chemotherapeutics doxorubicin (A2780/ADR) and cisplatin (A2780/CIS, all cell lines from ECACC, Salisbury, United Kingdom). A modified MTT assay was used ([Shnyder et al., 2008]). Cells (2 × 10^4/ml) were inoculated into each well of a 96-well plate and incubated for 24 h at 37°C in a humidified atmosphere containing 5% CO2. Compounds were then added at a range of concentrations to each well, and the plates were then incubated for a further 96 h. After 96 h, the culture medium was removed and 200 μL of 0.5 mg ml^–1 MTT solution (Sigma) in the complete medium was added to each well. Following a further 4 h incubation, the solution was removed from each well and 150 μL of DMSO was added to solubilize the formazan crystals resulting from MTT conversion. The absorbance values for the resulting solutions were read at 540 nm on an Azure 96-well microplate reader (Azure Biosynstems Inc.), and the cell survival was calculated as the absorbance of treated cells divided by the control.

A2780/ADR cells = experiment: Chemosensitivity MTT assay, doxorubicin-resistant A2780/ADR; assay type: cell-based; conditions: Homo sapiens, 96 h, ± SE, read-out: Activity against A2780/ADR cells, IC50
Method: as §2, with “A” for “The chemosensitivity of compounds 3–6 was assessed in the wild-type immortalized human ovarian adenocarcinoma cell line A2780 and its daughter cell lines, which are resistant to the standard cancer chemotherapeutics doxorubicin (A2780/ADR) and cisplatin (A2780/CIS, all cell lines from ECACC, Salisbury, United Kingdom). A”

A2780/cis cells = experiment: Chemosensitivity MTT assay, cisplatin-resistant A2780/CIS; assay type: cell-based, human; conditions: Homo sapiens, A2780cis, 96 h, ± SE, read-out: Activity against A2780/cis cells, IC50
Method: as §2

[2] = tested on: T. brucei bloodstream forms (strain 427, derivative 221); conditions: ref Oluwafemi et al. 2009; read-out: Activity against T. brucei IC50; cited from earlier work
P. berghei = P. berghei in mice, oral, 50 mg/kg/day; ref Wright et al., 1996; cited from earlier work
[3] = tested on: P. falciparum gametocytes; design: method as in Forkuo et al., 2017; conditions: ref Forkuo et al., 2017; read-out: IC50 against gametocytes, previous data; cited from earlier work

Cn1c2c3ccccc3nc-2cc2ccccc21 [Compound 1, cryptolepine]
IC50 (P. falciparum K1): 440 ± 220 nM | IC50 (P. falciparum 3D7): 460 ± 40 nM | IC50 (P. knowlesi A1-H.1): 1040 ± 23 nM | IC50 [1]: 2400 ± 300 nM | IC50 (A2780/WT cells): 440 ± 200 nM | IC50 (A2780/ADR cells): 1270 ± 600 nM | IC50 (A2780/cis cells): 670 ± 390 nM | IC50 [2]: 306 nM | Suppression of parasitemia compared to untreated infected controls (P. berghei): 80.5% | IC50 [3]: 1970 nM
